{"source": "patent US10980238B2", "about": "“Alkali metal salt for use in treatment of varroa destructor mite infestation of honey bees” (Universität Hohenheim, priority 2015, dated 2021)", "key": {"[1]": {"system": "Varroa destructor", "experiment": "Experiment 2 cage test (50 bees, 20 mites): dead mites", "type": "in vivo", "details": "25 mM in 70% sucrose", "method": "(§6) The next set of experiments was carried out in plastic container with 50 bees and 20 mites each. Bees were fed the same amount of unspecific dsRNA that has been used in previous assays in 70% sucrose solution, LiCl at a concentration of 25 mM in 70%, sucrose solution, and 70% sucrose solution only."}, "[2]": {"system": "Varroa destructor", "experiment": "Experiment 3 dose response cage test (50 bees, 25 mites): mite survival", "type": "in vivo", "protocol": "(§1) LiCl was added to 70% sucrose solution to final concentrations of 16 μM, 80 μM, 400 μM, 2 mM, 10 mM, 50 Mm, and 250 mM, respectively. 2 ml of the respective solution was fed to the bees, if the sucrose/LiCl solution was entirely ingested additional sucrose syrup was offered ad libidum. Uptake of LiCl solution as well as survival rate of bees and mites was monitored 3 times daily (morning, noon, evening). Additionally, the healthiness of bees was scored based on characteristic behavioral features. LiCl was administered until all mites were dead, and the experiment continued with plain sucrose syrup to record the response of bees over the entire 2 weeks of the experiment. For control bees treated with sucrose syrup only, 9 mites died within the course of the experiment with even timely distribution of the events, indicating natural death of mites. 26 bees died in the same period of time. In view of the life span of a worker bee (4 weeks) this relates to the natural death rate that can be expected in a time span of 14 days. However, 12 bees were lost in a single day equaling almost 50% of the total bee loss in this control experiment. […] For that reasons the sudden loss of bees on day 14 is considered to result from a mistake in bee treatment as feeding inappropriate amounts of sucrose syrup. (See FIG. 4, dotted red line)\n(§2) Additionally, we set out to test activity of a single dose on mite viability. Sucrose with 25 mM LiCl was fed to a cage of 50 bees infested with 25 mites and monitored as described above. […] As such, a single dose of LiCl can be used to kill mites under the described conditions.\n(§3) To explore the upper limit of dosage and limits of tolerability of bees we fed sucrose containing 100 mM of LiCl as only food source over 14 days. […] In view of the latter results the effective window for concentration and administration and regimen of LiCl is sufficiently large to elevate low but effective concentrations (10 mM) more than 10 fold or prolong the time of administration substantially without negative impact on bee health."}, "[3]": {"system": "bees", "experiment": "Experiment 3 dose response cage test (50 bees, 25 mites): bee survival and health", "type": "in vivo, Apis mellifera", "protocol": "as §1, §2, §3"}, "[4]": {"system": "Varroa mites", "experiment": "Experiment 5 cage comparison of LiCl, NaCl and MgCl2: dead mites", "type": "in vivo, Varroa destructor", "protocol": "(§4) In a further experiment LiCl, NaCl and MgCl2 were selected and their acaricidal activity compared. The experiment was performed in cages of 50 bees, to each of which 25 mites were added. Bees in control cages received sucrose only. LiCl, NaCl or MgCl2 were added to 70% sucrose solutions at a final concentration of 25 mM each and fed to the bees for seven days. Survival rate of bees and mites were monitored daily. Dead bees and mites were removed from the cages.\n(§5) The numbers represent mean values derived from 6 cages. […] Numbers for NaCl, MgCl2 and control represent mean values derived from 3 separate cages."}, "[5]": {"system": "bees", "details": "50 bees per cage, mean of 6 cages (LiCl) or 3 cages", "protocol": "as §4, §5"}, "[6]": {"system": "Varroa destructor", "experiment": "Experiment 7 mini-hives (2000 to 3000 bees), semi-field conditions", "type": "in vivo", "details": "remaining mites killed with Perizin and counted", "protocol": "In order to investigate if the miticidal effect of LiCl can also be detected under semi-field conditions, so-called “mini-hives” consisting of 2000 to 3000 bees each were treated with LiCl.\nLiCl was dissolved in 70% sucrose to final concentrations of 2 mM, 10 mM and 25 mM. Each concentration was replicated 6 times and fed to the bees for 23 days. Dead mites were documented daily. After 23 days of LiCl treatment, remaining mites were killed with Perizin® (commercial product containing the active ingredient coumaphos) and counted (see Table 4 “Remaining mites”)."}, "[7]": {"system": "honey bee larvae", "experiment": "Experiment 8 larval development in vitro", "type": "in vivo, Apis mellifera", "protocol": "In order to assess the effect of LiCl on larval development in vitro, larvae were obtained by caging the queen for 24 h on broodless combs in the colony. After 5 to 6 days when the larvae reached the age of about 48 h they were transferred to petri dishes filled with larval food. The petri dishes were placed in plastic boxed filled with 8% sulfuric acid in order to prevent fungi infection and kept in a chamber at 34° C. and 95% relative humidity. The larvae were fed as needed with a mixture consisting of 53% royal jelly, 4% glucose, 8% fructose, 1% yeast extract and water (control). For samples treated with LiCl, 10 mM, 25 mM or 50 mM LiCl were added to the mixture. Prior to the pupa phase, the larvae were placed on a tissue for defecating which occurred approximately on day 9. Afterwards larvae were placed in well plates until hatching. Larvae mortality was monitored on a daily basis."}, "[8]": {"system": "Varroa destructor", "experiment": "Experiment 9 artificial swarms: mite fall", "type": "in vivo", "details": "25 mM or 50 mM", "protocol": "Six artificial swarms were fed with sucrose/LiCl after a starving phase of several hours. LiCl was dissolved in sucrose at final concentrations of 25 mM and 50 mM. Each artificial swarm received 500 ml of the sucrose/LiCl mixture in a feeding balloon. The total volume of sucrose/LiCl solution was consumed by the bees. Mite fall was monitored for 7 days. Afterwards, bees were treated with Perizin® to assess the number of remaining mites."}, "[9]": {"system": "bees", "details": "25 mM in 70% sucrose; 50 bees", "method": "as §6"}, "[10]": {"details": "100 mM as only food source over 14 days"}, "[11]": {"details": "250 mM in 70% sucrose, 25 mites"}, "[12]": {"details": "25 mM in 70% sucrose for seven days"}, "[13]": {"details": "25 mM in 70% sucrose for seven days, 25 mites per cage, mean of 6 cages (LiCl) or 3 cages"}}, "note": "Several values for one entry are separate records, joined by “and”; a condition that tells them apart may be missing. Identical values can stand only once.", "data": [{"smiles": "[Cl-].[Li+]", "note": "[LiCl, lithium chloride]", "values": [{"measurement": "mites dead after 24 h", "setting": "[1]", "value": 4, "unit": "mites"}, {"measurement": "mites dead after 48 h", "setting": "[1]", "value": 15, "unit": "mites"}, {"measurement": "mites dead after 72 h", "setting": "[1]", "value": 20, "unit": "mites"}, {"measurement": "mites that survived the treatment", "setting": "[2]; 2 mM, 25 mites, 2 weeks", "value": 11, "unit": "mites"}, {"measurement": "time in which all mites were killed", "setting": "[2]; 10 mM in 70% sucrose, 25 mites", "value": "≤ 48", "unit": "h"}, {"measurement": "additional mites found dead at the end of the experiment", "setting": "[2]; 10 mM, 25 mites", "value": 2, "unit": "mites"}, {"measurement": "dead mites, day 1", "setting": "[2]; 10 mM, 25 mites", "value": 3, "unit": "mites"}, {"measurement": "dead mites, day 2", "setting": "[2]; 10 mM, 25 mites", "value": 10, "unit": "mites"}, {"measurement": "dead mites, day 3", "setting": "[2]; 10 mM, 25 mites", "value": 7, "unit": "mites"}, {"measurement": "dead mites, day 4", "setting": "[2]; 10 mM, 25 mites", "value": 3, "unit": "mites"}, {"measurement": "time to all mites dead", "setting": "[2]; 50 mM in 70% sucrose, 25 mites", "value": 48, "unit": "h"}, {"measurement": "effect on mites", "setting": "[2]; [10]", "value": "effectively killed"}, {"measurement": "mites lost between 30 h and 48 h", "setting": "[2]; [11]", "value": "21/25"}, {"measurement": "time to loss of all mites", "setting": "[2]; [11]", "value": "≤ 48", "unit": "h"}, {"measurement": "impact on viability of mites", "setting": "[2]; concentrations lower than 2 mM (16 μM, 80 μM, 400 μM), data not shown", "value": "only marginally impacted the viability of mites"}, {"measurement": "time to eliminate all mites", "setting": "[2]; concentrations of 10 mM and higher", "value": "≤ 4", "unit": "days"}, {"measurement": "time in which mites were effectively killed", "setting": "[2]; single dose of sucrose with 25 mM, 50 bees, 25 mites", "value": "≤ 72", "unit": "h"}, {"measurement": "tolerance by bees", "setting": "[3]; 2 mM over a period of 2 weeks", "value": "without pronounced decrease in viability"}, {"measurement": "bees that survived the treatment", "setting": "[3]; 2 mM, 50 bees, 2 weeks", "value": 42, "unit": "bees"}, {"measurement": "bees alive at the end of the experiment", "setting": "[3]; 10 mM, 50 bees, 2 weeks", "value": 34, "unit": "bees"}, {"measurement": "tolerability by the bees", "setting": "[3]; 50 mM, 50 bees", "value": "good tolerability"}, {"measurement": "bees lost in the timespan of the entire experiment", "setting": "[3]; 50 mM, 50 bees, 2 weeks", "value": 20, "unit": "bees"}, {"measurement": "effect on bees", "setting": "[3]; [10]", "value": "time delayed continuous loss of bees"}, {"measurement": "average rate of bee loss", "setting": "[3]; 250 mM until all mites dead, then sucrose only, 50 bees", "value": 3, "unit": "bees per day"}, {"measurement": "bees lost in total", "setting": "[3]; 250 mM until all mites dead, then sucrose only, 50 bees, 2 weeks", "value": 27, "unit": "bees"}, {"measurement": "impact on bee health", "setting": "[3]; single dose of sucrose with 25 mM, entire experiment", "value": "no negative impact on bee health"}, {"measurement": "acaricidal effect", "setting": "[4]; [12]", "value": "strong acaricidal effect"}, {"measurement": "Number of dead mites, Day 1", "setting": "[4]; [13]", "value": 0.3}, {"measurement": "Number of dead mites, Day 2", "setting": "[4]; [13]", "value": 2.2}, {"measurement": "Number of dead mites, Day 3", "setting": "[4]; [13]", "value": 19.2}, {"measurement": "Number of dead mites, Day 4", "setting": "[4]; [13]", "value": 3.0}, {"measurement": "Number of dead mites, Day 5", "setting": "[4]; [13]", "value": 0.3}, {"measurement": "Number of dead mites, Day 6", "setting": "[4]; [13]", "value": 0.0}, {"measurement": "Number of dead mites, Day 7", "setting": "[4]; [13]", "value": 0.0}, {"measurement": "Number of dead mites, Sum", "setting": "[4]; 25 mM in 70% sucrose, days 1-7, 25 mites per cage, mean of 6 cages (LiCl) or 3 cages", "value": 25.0}, {"measurement": "Number of dead bees, Day 1", "setting": "[5]; [12]", "value": 0.2}, {"measurement": "Number of dead bees, Day 2", "setting": "[5]; [12]", "value": 0.2}, {"measurement": "Number of dead bees, Day 3", "setting": "[5]; [12]", "value": 0.3}, {"measurement": "Number of dead bees, Day 4", "setting": "[5]; [12]", "value": 0.8}, {"measurement": "Number of dead bees, Day 5", "setting": "[5]; [12]", "value": 0.5}, {"measurement": "Number of dead bees, Day 6", "setting": "[5]; [12]", "value": 1.0}, {"measurement": "Number of dead bees, Day 7", "setting": "[5]; [12]", "value": 0.2}, {"measurement": "Number of dead bees, Sum", "setting": "[5]; 25 mM in 70% sucrose, days 1-7", "value": "3 and 3.2"}, {"measurement": "Remaining mites", "setting": "[6]; 2 mM in 70% sucrose for 23 days", "value": 234}, {"measurement": "Remaining mites", "setting": "[6]; 10 mM in 70% sucrose for 23 days", "value": 54}, {"measurement": "Remaining mites", "setting": "[6]; 25 mM in 70% sucrose for 23 days", "value": 24}, {"measurement": "Survival rate (%) of larvae or pupae", "setting": "[7]; 10 mM added to larval food", "value": 0, "unit": "%"}, {"measurement": "time in which all larvae were lost", "setting": "[7]; 10 mM, 25 mM or 50 mM added to larval food", "value": "≤ 72", "unit": "h"}, {"measurement": "Survival rate (%) of larvae or pupae", "setting": "[7]; 25 mM added to larval food", "value": 0, "unit": "%"}, {"measurement": "Survival rate (%) of larvae or pupae", "setting": "[7]; 50 mM added to larval food", "value": 0, "unit": "%"}, {"measurement": "acaricidal efficacies for all six swarms", "setting": "[8]", "value": "above 80%"}, {"measurement": "effect on bees within the first 4 days of treatment", "setting": "[9]", "value": "not affected"}]}]}
